Active and inactive are the calls of the source.
Columns and labels:
[1] = Fluorescence-based cell-based high throughput dose response assay for inhibitors of the interaction of nucleotide-binding oligomerization domain containing 2 (NOD2) and the receptor-interacting serine-threonine kinase 2 (RIPK2).; assay type: functional, Homo sapiens
[2] = intracellular Trypanosoma cruzi inhibitors in host cells – cell-based, plate reader, cherry-pick samples, set 3, dose response (AID 651818); assay type: functional;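 further: compounds incubated with infected cells for about four days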
[3] = molecular target: Dual specificity tyrosine-phosphorylation-regulated kinase 1A (Rattus norvegicus, UniProt Q63470); assay type: biochemical, Homo sapiens
Caspase-3 = molecular target: T1, Caspase-3 (Homo sapiens, UniProt P42574); assay type: functional;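 further: Dose-response selectivity test against caspase-3 for candidate inhibitors of sentrin-specific proteases (SENPs)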
T1 sequence (P42574 whole entry): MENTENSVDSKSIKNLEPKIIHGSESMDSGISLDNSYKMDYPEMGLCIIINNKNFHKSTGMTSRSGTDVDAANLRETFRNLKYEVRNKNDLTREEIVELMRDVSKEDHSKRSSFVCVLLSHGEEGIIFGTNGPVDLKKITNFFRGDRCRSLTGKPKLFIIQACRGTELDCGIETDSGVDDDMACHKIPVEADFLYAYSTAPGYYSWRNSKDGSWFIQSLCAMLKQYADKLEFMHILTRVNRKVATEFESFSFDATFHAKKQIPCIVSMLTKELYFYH

[4] = molecular target: T2, Sentrin-specific protease 7 (Homo sapiens, UniProt Q9BQF6); assay type: functional;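 further: Luminescence-based dose-response confirmation of ultra-high-throughput screening hits, measuring inhibition of SENP7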
T2 sequence (Q9BQF6 whole entry): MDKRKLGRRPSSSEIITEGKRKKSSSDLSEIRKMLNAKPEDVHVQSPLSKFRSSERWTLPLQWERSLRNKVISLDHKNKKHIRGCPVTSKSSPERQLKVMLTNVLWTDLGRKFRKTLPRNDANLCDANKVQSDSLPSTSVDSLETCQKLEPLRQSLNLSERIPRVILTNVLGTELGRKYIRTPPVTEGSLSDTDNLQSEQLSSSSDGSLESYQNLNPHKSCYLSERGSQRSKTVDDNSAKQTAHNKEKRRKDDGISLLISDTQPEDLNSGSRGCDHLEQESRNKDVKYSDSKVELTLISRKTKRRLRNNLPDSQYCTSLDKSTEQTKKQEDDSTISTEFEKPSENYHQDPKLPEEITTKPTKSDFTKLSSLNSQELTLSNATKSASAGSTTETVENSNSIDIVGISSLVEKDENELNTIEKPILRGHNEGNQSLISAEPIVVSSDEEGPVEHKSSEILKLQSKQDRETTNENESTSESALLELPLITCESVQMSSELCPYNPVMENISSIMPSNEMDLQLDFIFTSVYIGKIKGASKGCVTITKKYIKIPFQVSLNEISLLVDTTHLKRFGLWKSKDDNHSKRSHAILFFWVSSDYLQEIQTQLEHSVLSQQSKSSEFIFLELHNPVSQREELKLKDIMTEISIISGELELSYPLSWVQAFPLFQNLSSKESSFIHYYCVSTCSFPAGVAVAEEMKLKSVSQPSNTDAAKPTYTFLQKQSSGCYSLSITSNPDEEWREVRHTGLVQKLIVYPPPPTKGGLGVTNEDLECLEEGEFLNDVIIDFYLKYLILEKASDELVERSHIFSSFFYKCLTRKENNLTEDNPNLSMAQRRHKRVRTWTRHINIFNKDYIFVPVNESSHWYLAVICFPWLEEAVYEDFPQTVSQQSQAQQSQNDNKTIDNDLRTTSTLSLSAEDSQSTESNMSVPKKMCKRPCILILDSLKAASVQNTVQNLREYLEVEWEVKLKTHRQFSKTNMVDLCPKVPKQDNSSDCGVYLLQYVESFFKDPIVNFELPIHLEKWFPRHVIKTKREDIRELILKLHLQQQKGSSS

[5] = molecular target: T3, Sentrin-specific protease 6 (Homo sapiens, UniProt Q9GZR1); assay type: functional;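 further: Luminescence-based dose-response confirmatory assay of SENP6 inhibition, following up an ultra-high-throughput screen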
T3 sequence (Q9GZR1 whole entry): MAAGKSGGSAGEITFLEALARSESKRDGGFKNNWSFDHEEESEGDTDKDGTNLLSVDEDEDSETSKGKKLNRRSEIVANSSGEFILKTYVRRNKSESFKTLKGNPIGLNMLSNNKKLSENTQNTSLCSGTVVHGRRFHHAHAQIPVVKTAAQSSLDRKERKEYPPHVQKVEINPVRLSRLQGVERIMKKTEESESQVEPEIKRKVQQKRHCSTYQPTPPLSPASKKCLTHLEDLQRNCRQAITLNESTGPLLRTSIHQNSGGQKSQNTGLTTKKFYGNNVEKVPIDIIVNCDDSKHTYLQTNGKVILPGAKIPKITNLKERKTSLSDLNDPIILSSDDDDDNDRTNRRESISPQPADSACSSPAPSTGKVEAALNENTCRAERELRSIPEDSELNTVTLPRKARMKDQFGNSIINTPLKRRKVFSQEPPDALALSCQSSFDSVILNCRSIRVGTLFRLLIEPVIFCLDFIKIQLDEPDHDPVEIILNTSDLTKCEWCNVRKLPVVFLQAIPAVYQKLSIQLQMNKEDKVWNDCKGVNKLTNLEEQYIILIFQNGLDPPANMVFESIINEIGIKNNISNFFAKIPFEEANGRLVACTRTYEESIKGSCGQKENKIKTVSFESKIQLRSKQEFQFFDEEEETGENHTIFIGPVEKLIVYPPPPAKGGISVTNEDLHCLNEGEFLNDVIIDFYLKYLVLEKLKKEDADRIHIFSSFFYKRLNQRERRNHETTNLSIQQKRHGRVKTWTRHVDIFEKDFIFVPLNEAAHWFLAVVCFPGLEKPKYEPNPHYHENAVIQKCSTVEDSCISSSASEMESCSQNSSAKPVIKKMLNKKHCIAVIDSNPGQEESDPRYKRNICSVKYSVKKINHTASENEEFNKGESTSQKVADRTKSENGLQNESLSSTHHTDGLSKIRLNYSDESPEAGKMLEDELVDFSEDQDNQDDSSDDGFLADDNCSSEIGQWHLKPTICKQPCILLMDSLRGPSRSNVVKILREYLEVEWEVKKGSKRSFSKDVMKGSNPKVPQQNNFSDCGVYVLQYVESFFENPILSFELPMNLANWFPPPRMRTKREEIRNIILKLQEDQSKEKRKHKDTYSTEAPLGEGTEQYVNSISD

[6] = molecular target: T4, Sentrin-specific protease 8 (Homo sapiens, UniProt Q96LD8); assay type: functional;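 further: luminescence read-out of SENP8 inhibition, dose-response confirmation following an ultra-high-throughput screen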
T4 sequence (Q96LD8 whole entry): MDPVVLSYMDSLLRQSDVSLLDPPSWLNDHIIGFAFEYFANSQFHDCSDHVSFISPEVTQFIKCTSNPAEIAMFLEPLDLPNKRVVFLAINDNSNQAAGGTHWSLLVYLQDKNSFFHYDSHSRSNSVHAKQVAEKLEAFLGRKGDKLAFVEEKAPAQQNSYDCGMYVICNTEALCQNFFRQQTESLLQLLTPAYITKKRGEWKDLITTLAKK

[7] = molecular target: T5, Short transient receptor potential channel 4 (Mus musculus, UniProt Q9QUQ5); experiment: calcium entry via TRPC4 opening agents – cell-based, HEK293 TRPC4/mu-opioid, Fluo-4 calcium, dose response (AID 434937); assay type: functional
T5 sequence (Q9QUQ5 whole entry): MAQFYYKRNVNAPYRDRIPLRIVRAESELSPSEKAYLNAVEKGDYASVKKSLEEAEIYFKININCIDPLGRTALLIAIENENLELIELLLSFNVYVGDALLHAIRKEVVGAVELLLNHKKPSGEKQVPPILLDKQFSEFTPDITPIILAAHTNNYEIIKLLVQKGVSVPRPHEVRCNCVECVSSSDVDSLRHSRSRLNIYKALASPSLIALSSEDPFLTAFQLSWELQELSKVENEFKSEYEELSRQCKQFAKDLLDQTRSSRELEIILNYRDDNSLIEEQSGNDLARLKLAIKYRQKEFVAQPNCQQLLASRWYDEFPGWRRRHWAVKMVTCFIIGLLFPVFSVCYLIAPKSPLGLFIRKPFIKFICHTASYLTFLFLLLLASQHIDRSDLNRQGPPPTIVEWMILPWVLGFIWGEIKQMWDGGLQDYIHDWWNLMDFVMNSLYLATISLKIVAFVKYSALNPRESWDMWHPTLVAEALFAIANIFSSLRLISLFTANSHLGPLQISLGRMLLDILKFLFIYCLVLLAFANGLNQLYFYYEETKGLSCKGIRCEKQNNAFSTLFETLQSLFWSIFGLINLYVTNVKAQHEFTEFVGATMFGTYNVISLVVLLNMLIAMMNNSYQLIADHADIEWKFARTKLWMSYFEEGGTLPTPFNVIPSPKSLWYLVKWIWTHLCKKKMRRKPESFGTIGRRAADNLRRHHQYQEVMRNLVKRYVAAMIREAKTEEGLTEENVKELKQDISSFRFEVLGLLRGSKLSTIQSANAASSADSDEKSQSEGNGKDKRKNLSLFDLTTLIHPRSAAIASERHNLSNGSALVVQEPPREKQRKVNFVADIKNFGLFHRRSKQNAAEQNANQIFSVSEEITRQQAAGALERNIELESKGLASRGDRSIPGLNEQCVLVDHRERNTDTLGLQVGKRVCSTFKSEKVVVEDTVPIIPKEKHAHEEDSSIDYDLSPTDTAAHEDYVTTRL

[8] = molecular target: T6, High affinity choline transporter 1 (Homo sapiens, UniProt Q9GZV3); experiment: human choline transporter blockers, potency – cell-based, 5-point CRC, membrane potential dye, dose response (AID 504840); assay type: functional
T6 sequence (Q9GZV3 whole entry): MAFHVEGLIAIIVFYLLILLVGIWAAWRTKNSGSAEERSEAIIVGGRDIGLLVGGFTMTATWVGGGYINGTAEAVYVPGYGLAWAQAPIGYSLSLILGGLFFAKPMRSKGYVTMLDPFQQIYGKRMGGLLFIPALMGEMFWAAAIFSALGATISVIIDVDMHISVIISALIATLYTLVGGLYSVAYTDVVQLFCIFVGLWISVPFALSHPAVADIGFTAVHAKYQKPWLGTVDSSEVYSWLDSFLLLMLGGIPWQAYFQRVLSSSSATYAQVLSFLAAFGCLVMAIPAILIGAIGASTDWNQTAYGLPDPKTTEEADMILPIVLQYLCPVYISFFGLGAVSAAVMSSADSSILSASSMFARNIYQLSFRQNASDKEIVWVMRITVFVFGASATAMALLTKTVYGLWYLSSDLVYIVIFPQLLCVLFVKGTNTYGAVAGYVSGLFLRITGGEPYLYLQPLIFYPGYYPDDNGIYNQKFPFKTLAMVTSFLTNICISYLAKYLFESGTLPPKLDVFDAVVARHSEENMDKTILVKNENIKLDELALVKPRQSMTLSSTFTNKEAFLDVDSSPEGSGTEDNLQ

[9] = molecular target: T7, Microphthalmia-associated transcription factor (Homo sapiens, UniProt O75030); experiment: reducers of TRPM1 reporter luminescence, concentration series – cell-based, SK-MEL-5, cherry-picked, set 3, MITF inhibitor project, dose response (AID 493073); assay type: functional;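 further: SK-MEL-5 melanoma cells with luciferase driven by the MITF target TRPM1 promoter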
T7 sequence (O75030 whole entry): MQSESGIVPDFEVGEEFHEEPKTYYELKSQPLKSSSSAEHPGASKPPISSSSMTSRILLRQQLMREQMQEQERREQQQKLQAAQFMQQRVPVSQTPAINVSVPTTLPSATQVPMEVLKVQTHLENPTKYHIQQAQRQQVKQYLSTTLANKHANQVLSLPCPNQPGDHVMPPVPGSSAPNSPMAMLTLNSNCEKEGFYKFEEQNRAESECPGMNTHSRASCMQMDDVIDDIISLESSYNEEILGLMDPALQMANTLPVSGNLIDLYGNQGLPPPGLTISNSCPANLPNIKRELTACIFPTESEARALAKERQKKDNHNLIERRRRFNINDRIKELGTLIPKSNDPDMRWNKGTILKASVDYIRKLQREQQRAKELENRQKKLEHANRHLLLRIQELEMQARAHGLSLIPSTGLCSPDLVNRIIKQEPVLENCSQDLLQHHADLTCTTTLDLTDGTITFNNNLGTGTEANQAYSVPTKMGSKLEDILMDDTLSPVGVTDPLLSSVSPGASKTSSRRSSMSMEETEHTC

Question: For `CC(=O)OCC12CC(OC(=O)CC(C)C)C(C)=CC1OC1C(O)C(OC(C)=O)C2(C)C12CO2` (stereo not drawn), which IC50 [1] is on record?
Answer: The IC50 was 49.8 µM (inactive).

Question: For `Cc1ccc(S(=O)(=O)N(C)C[C@H]2Oc3c(NC(=O)c4ccncc4)cccc3C(=O)N([C@H](C)CO)C[C@@H]2C)cc1`, which AC50 [2] is on record?
Answer: The AC50 was 6.3 µM (active).

Question: With `C[C@@H]1CN([C@@H](C)CO)C(=O)c2cccc(NS(=O)(=O)c3ccc(Cl)cc3)c2O[C@@H]1CN(C)Cc1ccc(-c2ccccc2)cc1` as the compound, how does the AC50 [2] read?
Answer: The AC50 was 2.97 µM (active).

Question: With `COc1ccc2[nH]c3c(c2c1)CCNC3=O` as the compound, how does the AC50 [3] read?
Answer: Its AC50 is 0.845 µM (active).

Question: Which AC50 [2] does the source give for `C[C@@H]1CCCCO[C@H](CN(C)C(=O)Nc2ccccc2)[C@@H](C)CN([C@H](C)CO)C(=O)c2cc(NC(=O)Nc3ccc(C(F)(F)F)cc3)ccc2O1` here?
Answer: The AC50 was 4.2 µM (active).

Question: With `Cc1n[nH]c(O)c1N=Nc1ccc(Br)c(Cl)c1` as the compound, how does the IC50 (Caspase-3) read?
Answer: The IC50 was 2.41 µM (active).

Question: What about the IC50 [4] of the same compound?
Answer: The IC50 was 2.2 µM (active).

Question: And the IC50 [5]?
Answer: Its IC50 is 3.79 µM (active).

Question: What about the IC50 [6] of the same compound?
Answer: The IC50 was 2.43 µM (active).

Question: Which EC50 [7] does the source give for `N=C1C[N+](CC23CC4CC(CC(C4)C2)C3)=NO1` here?
Answer: Its EC50 is 1.06 µM (active).

Question: What about the IC50 [8] of the same compound?
Answer: Its IC50 is 13.5 µM (active).

Question: With `CCCN(CCC)CCNC(=O)c1cc2c(=O)n(C)c3ccccc3c2n1C` as the compound, how does the AC50 [3] read?
Answer: Its AC50 is 13.4 µM (active).

Question: For `C[C@@H]1CN([C@H](C)CO)C(=O)Cc2cc(NC(=O)Cc3ccccc3)ccc2O[C@@H]1CN(C)Cc1ccc(-c2ccccc2)cc1`, which AC50 [2] is on record?
Answer: Its AC50 is 6.35 µM (active).

Question: For `Cc1[nH]n(-c2ccccc2)c(=O)c1N=Nc1cccc(C(=O)O)c1`, which IC50 (Caspase-3) is on record?
Answer: The IC50 was > 100 µM (inactive).

Question: What about the IC50 [4] of the same compound?
Answer: Its IC50 is 15.2 µM (active).

Question: And the IC50 [5]?
Answer: The IC50 was 21.5 µM (active).

Question: What about the IC50 [6] of the same compound?
Answer: Its IC50 is 35.5 µM (active).

Question: What about the AC50 [9] of the same compound?
Answer: Its AC50 is 8.07 µM (active).
